Assay results as given in patent publication US6117841A, “Substituted peptidylamine calcium channel blockers” (Warner-Lambert Company, priority 1999, dated 2000).
Where two headings read alike, the source gives them in different places.

Target: T1, N-type Ca^2+ Channel (Homo sapiens, UniProt Q00975)
T1 construct: host or cells: IMR-32 cells differentiated with dibutyryl cAMP and bromodeoxyuridine
Experiment: Measurement of N-type Ca2+ channel blocking potencies in IMR-32 cells using the fluorescent Ca2+ indicator Indo-1
Format: cell-based
How it was run: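 IMR-32 cells were differentiated 7–13 days (1 mM dibutyryl cAMP, 2.5 µM BrdU) and Indo-1-loaded. They were preincubated 10 min at 30 °C with compound and 5 µM nitrendipine in HEPES/Tris pH 7.4 HBSS with 0.5% BSA, then KCl/CaCl2-depolarized. The peak-minus-basal 400/490 nm emission ratio gave IC50 by four-parameter logistic fit.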

[1] = IMR-32 cells, 5 μM nitrendipine, Examples 116-140, read-out: IMR 32% of Blockade @
[2] = IMR-32 cells, K+ depolarization, 5 μM nitrendipine to block L-type channels, read-out: IMR 32 IC50

T1 sequence (Q00975 whole entry): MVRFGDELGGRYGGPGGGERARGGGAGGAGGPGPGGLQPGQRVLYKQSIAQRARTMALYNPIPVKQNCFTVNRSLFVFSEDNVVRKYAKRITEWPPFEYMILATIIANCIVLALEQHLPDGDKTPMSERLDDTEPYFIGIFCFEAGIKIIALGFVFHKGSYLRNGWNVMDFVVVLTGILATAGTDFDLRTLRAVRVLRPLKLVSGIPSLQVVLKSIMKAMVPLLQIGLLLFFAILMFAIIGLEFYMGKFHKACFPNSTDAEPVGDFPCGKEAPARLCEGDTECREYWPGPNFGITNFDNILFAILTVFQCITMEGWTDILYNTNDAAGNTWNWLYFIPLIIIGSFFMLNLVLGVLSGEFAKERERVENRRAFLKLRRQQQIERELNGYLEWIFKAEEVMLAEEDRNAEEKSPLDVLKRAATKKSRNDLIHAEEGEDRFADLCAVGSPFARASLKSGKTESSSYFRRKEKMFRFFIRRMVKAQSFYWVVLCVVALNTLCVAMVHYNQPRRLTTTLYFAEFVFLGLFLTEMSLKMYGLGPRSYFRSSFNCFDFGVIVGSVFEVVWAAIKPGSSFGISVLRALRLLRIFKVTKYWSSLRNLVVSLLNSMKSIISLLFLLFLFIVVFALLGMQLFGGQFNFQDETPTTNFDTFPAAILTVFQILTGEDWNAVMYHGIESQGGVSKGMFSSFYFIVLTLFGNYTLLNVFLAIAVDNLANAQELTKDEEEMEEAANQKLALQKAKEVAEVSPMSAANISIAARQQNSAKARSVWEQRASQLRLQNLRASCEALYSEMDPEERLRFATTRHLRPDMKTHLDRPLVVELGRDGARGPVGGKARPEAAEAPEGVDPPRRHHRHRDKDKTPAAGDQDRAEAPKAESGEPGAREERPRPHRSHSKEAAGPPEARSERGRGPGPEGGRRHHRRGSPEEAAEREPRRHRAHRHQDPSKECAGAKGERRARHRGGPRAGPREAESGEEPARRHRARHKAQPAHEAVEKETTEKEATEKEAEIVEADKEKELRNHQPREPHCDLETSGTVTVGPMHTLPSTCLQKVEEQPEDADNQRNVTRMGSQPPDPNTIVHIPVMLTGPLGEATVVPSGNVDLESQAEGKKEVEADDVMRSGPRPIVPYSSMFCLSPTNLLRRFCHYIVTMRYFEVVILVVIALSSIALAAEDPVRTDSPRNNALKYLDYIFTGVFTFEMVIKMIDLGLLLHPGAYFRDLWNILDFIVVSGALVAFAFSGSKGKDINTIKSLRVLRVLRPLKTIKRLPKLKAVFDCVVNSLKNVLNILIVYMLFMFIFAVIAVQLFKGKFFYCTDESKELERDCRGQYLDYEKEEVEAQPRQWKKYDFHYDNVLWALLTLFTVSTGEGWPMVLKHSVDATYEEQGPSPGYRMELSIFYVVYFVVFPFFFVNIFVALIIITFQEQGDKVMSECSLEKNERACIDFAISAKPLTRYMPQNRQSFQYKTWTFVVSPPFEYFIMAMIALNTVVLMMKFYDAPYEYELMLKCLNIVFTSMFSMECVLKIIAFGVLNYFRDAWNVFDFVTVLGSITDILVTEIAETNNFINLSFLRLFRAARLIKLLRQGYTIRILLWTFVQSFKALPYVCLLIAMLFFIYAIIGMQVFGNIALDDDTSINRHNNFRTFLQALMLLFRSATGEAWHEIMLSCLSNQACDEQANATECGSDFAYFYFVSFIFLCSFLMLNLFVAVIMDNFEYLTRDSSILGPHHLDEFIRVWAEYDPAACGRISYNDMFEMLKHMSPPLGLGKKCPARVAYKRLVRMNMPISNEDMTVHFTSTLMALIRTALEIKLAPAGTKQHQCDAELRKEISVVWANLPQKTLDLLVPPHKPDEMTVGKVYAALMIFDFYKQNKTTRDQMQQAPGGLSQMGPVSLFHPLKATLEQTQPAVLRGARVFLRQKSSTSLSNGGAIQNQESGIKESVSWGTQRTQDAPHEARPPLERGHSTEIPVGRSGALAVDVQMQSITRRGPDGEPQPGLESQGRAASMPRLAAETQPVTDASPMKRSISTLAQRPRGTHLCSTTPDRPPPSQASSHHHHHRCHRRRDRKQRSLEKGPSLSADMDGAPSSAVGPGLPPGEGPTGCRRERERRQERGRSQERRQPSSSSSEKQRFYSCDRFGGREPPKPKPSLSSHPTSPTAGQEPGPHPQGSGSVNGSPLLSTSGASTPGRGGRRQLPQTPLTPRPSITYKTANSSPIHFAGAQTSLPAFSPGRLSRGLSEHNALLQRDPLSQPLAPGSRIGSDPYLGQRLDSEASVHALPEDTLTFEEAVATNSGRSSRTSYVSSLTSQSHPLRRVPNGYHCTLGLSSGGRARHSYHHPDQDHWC
T1 sequence (P54284 whole entry partner): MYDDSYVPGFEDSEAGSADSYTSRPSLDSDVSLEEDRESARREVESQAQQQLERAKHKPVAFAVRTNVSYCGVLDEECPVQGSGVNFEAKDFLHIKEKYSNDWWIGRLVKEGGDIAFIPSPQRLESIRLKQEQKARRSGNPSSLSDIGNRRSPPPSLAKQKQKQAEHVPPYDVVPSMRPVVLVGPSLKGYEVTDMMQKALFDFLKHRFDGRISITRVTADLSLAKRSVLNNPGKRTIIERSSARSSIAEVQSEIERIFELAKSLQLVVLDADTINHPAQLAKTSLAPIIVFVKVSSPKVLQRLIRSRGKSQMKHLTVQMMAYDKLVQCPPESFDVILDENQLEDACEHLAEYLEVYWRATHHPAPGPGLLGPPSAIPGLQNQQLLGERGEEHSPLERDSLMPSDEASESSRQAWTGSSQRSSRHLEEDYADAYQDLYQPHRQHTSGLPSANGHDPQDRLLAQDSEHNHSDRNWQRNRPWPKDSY
T1 sequence (P54289 25-946 partner limits assumed): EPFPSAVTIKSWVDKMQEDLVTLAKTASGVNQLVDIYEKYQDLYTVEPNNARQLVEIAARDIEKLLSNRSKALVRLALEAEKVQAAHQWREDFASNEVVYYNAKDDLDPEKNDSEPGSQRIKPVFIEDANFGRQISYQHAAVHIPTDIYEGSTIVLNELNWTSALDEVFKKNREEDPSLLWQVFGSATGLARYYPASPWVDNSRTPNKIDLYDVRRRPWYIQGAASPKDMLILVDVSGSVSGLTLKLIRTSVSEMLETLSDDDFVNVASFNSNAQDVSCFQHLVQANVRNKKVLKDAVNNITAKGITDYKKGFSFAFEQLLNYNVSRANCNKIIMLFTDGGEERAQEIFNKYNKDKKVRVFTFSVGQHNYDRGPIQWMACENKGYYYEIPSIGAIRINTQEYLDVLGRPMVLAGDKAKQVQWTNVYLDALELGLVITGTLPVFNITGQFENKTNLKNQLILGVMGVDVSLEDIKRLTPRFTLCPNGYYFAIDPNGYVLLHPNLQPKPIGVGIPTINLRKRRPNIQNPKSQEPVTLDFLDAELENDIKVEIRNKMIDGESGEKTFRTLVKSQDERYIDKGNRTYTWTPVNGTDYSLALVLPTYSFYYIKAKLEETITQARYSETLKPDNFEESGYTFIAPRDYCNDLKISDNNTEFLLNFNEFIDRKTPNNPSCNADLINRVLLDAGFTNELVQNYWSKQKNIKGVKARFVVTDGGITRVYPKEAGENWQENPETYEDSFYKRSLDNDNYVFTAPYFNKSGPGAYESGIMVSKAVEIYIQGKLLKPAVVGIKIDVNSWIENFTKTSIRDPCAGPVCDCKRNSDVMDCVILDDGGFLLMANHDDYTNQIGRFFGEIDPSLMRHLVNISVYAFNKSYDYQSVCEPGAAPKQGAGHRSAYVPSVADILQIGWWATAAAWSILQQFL
T1 sequence (P54289 947-1103 partner limits assumed): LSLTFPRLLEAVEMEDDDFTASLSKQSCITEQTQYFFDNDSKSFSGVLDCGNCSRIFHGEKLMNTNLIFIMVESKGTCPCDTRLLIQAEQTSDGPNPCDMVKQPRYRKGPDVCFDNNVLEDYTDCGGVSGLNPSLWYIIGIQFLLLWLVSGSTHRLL

Row | IC50 [1] [µM] | IC50 [2] [µM] | SMILES | also measured
1 | 6.3 |  | CC(C)C[C@H](NC1CCOCC1)C(=O)N[C@@H](Cc1ccc(OCc2ccccc2)cc1)C(=O)NCCCn1ccnc1 (relative stereo) [Example 129, [S-(R*,R*)]-4-Methyl-2-(tetrahydropyran-4-yl-amino)-pentanoic acid [2-(4-benzyloxy-phenyl)-1-(3-imidazol-1-yl-propylcarbamoyl)-ethyl]-amide] | 
2 | 12 |  | CC(C)C[C@@H](C(=O)N[C@@H](Cc1ccc(OCc2ccccc2)cc1)C(=O)NCCN1CCOCC1)N(C)C (relative stereo) [Example 132, [S-(R*,R*)]-2-Dimethylamino-4-methyl-pentanoic acid [2-(4-benzyloxy-phenyl)-1-(2-morpholin-4-yl-ethylcarbamoyl)-ethyl]-amide] | 
3 |  |  | CC(C)C[C@@H](C(=O)N[C@@H](Cc1ccc(OCc2ccccc2)cc1)C(=O)NCCc1ccccn1)N(C)C (relative stereo) [Example 133, [S-(R*,R*)]-2-Dimethylamino-4-methyl-pentanoic acid [2-(4-benzyloxy-phenyl)-1-(2-(2-aminoethyl)pyridinecarbamoyl)-ethyl]-amide] | IC50 (read-out: IMR 32% of Blockade @): 5.9 µM
4 | 1.6 |  | CC(C)C[C@@H](C(=O)N[C@@H](Cc1ccc(OCc2ccccc2)cc1)C(=O)NCCCn1ccnc1)N(C)C (relative stereo) [Example 134, [S-(R*,R*)]-2-Dimethylamino-4-methyl-pentanoic acid [2-(4-benzyloxy-phenyl)-1-(3-imidazol-1-yl-propylcarbamoyl)-ethyl]-amide] | 
5 | 1.4 |  | CC(C)C[C@@H](C(=O)N[C@@H](Cc1ccc(OCc2ccccc2)cc1)C(=O)N1CCSCC1)N(C)C (relative stereo) [Example 135, [S-(R*,R*)]-2-Dimethylamino-4-methyl-pentanoic acid [2-(4-benzyloxy-phenyl)-1-(thiomorpholinecarbamoyl)-ethyl]-amide] | 
6 | 3.6 |  | CC(C)C[C@@H](C(=O)N[C@@H](Cc1ccc(OCc2ccccc2)cc1)C(=O)NC(C)CO)N(C)C (relative stereo) [Example 136, [S-(R*,R*)]-2-Dimethylamino-4-methyl-pentanoic acid [2-(4-benzyloxy-phenyl)-1-(2-aminopropan-1-olcarbamoyl)-ethyl]-amide] | 
7 | 3 |  | CCC(COC)NC(=O)[C@H](Cc1ccc(OCc2ccccc2)cc1)NC(=O)[C@H](CC(C)C)N(C)C (relative stereo) [Example 138, [S-(R*,R*)]-2-Dimethylamino-4-methyl-pentanoic acid [2-(4-benzyloxy-phenyl)-1-(1-methoxymethyl-propylcarbamoyl)-ethyl]-amide] | 
8 | 38.8 |  | CC(C)C[C@@H](C(=O)N[C@@H](Cc1ccc(OCc2ccccc2)cc1)C(=O)NCCN1CCCC1)N(C)C (relative stereo) [Example 139, [S-(R*,R*)]-2-Dimethylamino-4-methyl-pentanoic acid [2-(4-benzyloxy-phenyl)-1-(2-pyrrolidin-1-yl-ethylcarbamoyl)-ethyl]-amide] | 
9 |  |  | CCN(CC)C(CC(C)C)C(=O)N[C@@H](Cc1ccc(OCc2ccccc2)cc1)C(=O)NC(C)(C)C (stereo in doubt) [Example 37, [S-(R*,R*/S*)]-2-Diethylamino-4-methyl-pentanoic acid[2-(4-benzyloxy-phenyl)-1-tert-butylcarbamoyl-ethyl]-amide] | IC50 (read-out: IMR 32 IC50): 1 µM
10 |  | 0.2 | CC(C)CCN(C)[C@@H](CC(C)C)C(=O)NC(Cc1ccc(OCc2ccccc2)cc1)C(=O)NCCNCc1ccccc1 (stereo in doubt) [Example 60, [S(R*,R*)]-4-Methyl-2-[methyl-(3-methyl-butyl)-amino]-pentanoic acid [1-(2-benzylamino-ethylcarbamoyl)-2-(4-benzyloxy-phenyl)-ethyl]-amide] | 
11 |  |  | CC(C)CCN(C)C(CC(C)C)C(=O)NC(Cc1ccc(OCc2ccccc2)cc1)C(=O)N1CCN(Cc2ccccc2)CC1 (stereo not drawn) [Example 10, [S-(R*,R*)]4-Methyl-2-[methyl-(3-methyl-butyl)-amino]-pentanoic acid [1-(4-benzyloxy-benzyl)-2-(4-benzyl-piperazin-1-yl)-2-oxo-ethyl]-amide] | IMR 32 % of Blockade @ 1 μM (1 μM, IMR-32 cells, 5 μM nitrendipine): 61%; IMR 32 % of Blockade @ 10 μM (10 μM, IMR-32 cells, 5 μM nitrendipine): 80%
12 |  | 1.2 | CC(C)CC(C(=O)NC(Cc1ccc(OCc2ccccc2)cc1)C(=O)N1CCN(C)CC1)N(C)CC1CCCCC1 (stereo not drawn) [Example 30, [S-(R*,R*)]-2-(Cyclohexylmethyl-methyl-amino)-4-methyl-pentanoic acid [1-(4-benzyloxy-benzyl)-2-(4-methyl-piperazin-1-yl)-2-oxo-ethyl]-amide] | 
13 |  |  | CCN(CCC(C)C)C(CC(C)C)C(=O)NC(Cc1ccc(OCc2ccccc2)cc1)C(=O)NC(C)(C)C (stereo not drawn) [Example 45, [S-(R*,R*)]-4Methyl-2-[ethyl-(3-methyl-butyl)-amino]-pentanoic acid [2-(4-benzyloxy-phenyl)-1-tert-butylcarbamoyl-ethyl]-amide] | IMR 32 % of Blockade @ 0.3 μM (0.3 μM, IMR-32 cells, 5 μM nitrendipine): 45%; IMR 32 % of Blockade @ 3 μM (3 μM, IMR-32 cells, 5 μM nitrendipine): 77%
14 |  | 0.42 | CC(C)CC(NCc1ccc(C(C)(C)C)cc1)C(=O)NC(Cc1ccc(OCc2ccccc2)cc1)C(=O)NC(C)(C)C (stereo not drawn) [Example 50, [S-(R*,R*)]-2-(4-tert-Butyl-benzylamino)-4-methyl-pentanoic acid [2-(4-benzyloxy-phenyl)-1-tert-butylcarbamoyl-ethyl]-amide] | 
15 |  | 0.36 | CC(C)CC(C(=O)NC(Cc1ccc(OCc2ccccc2)cc1)C(=O)NC(C)(C)C)N(C)Cc1ccccc1 (stereo not drawn) [Example 54, [S-(R*,R*)]-2-(Benzyl-methyl-amino)-4-methyl-pentanoic acid [2-(4-benzyloxy-phenyl)-1-tert-butylcarbamoyl-ethyl]-amide] | 
16 |  | 0.1 | CC(C)CC(C(=O)NC(Cc1ccc(NCc2ccccc2)cc1)C(=O)NC(C)(C)C)N(C)Cc1ccc(C(C)(C)C)cc1 (stereo not drawn) [Example 55, [S-(R*,R*)]-2-[(4-tert-Butyl-benzyl)-methyl-amino]-4-methyl-pentanoic acid [2-(4-benzylamino-phenyl)-1-tert-butylcarbamoyl-ethyl]-amide] | 
17 |  | 1.9 | CC(C)CCN(C)C(CC(C)C)C(=O)NC(Cc1ccc(OCc2ccccc2)cc1)C(=O)NCCNCCO (stereo not drawn) [Example 66, [S-(R*,R*)]-4-Methyl-2-[methyl-(3-methyl-butyl)-amino]-pentanoic acid {2-(4-benzyloxy-phenyl)-1-[2-(2-hydroxy-ethylamino)-ethylcarbamoyl]-ethyl}-amide] | 
18 |  | 2.3 | CC(C)CC(C(=O)NC(Cc1ccc(OCc2ccccc2)cc1)C(=O)N1CCCCC1)N1CCOCC1 (stereo not drawn) [Example 70, [S-(R*,R*)]-4-Methyl-2-morpholin-4-yl-pentanoic acid [1-(4-benzyloxy-benzyl)-2-oxo-2-piperidin-1-yl-ethyl]-amide] | 
19 |  | 2.7 | CC(C)CC(NC1CCOCC1)C(=O)NC(Cc1ccc(OCc2ccccc2)cc1)C(=O)NC(C)(C)CO (stereo not drawn) [Example 73, [S-(R*,R*)]-4-Methyl-2-(tetrahydro-pyran4-ylamino)-pentanoic acid [2-(4-benzyloxy-phenyl)-1-(2-hydroxy-1,1-dimethyl-ethylearbamoyl)-ethyl]-amide] | 
20 |  | 2.6 | CCC(CO)(CO)NC(=O)C(Cc1ccc(OCc2ccccc2)cc1)NC(=O)C(CC(C)C)NC1CCOCC1 (stereo not drawn) [Example 74, [S-(R*,R*)]-4-Methyl-2-(tetrahydro-pyran-4-ylamino)-pentanoic acid [2-(4-benzyloxy-phenyl)-1-(1,1-bis-hydroxymethyl-propylcarbamoyl)-ethyl]-amide] | 
